Experimental data from article PMC9325861, “Mouse precision-cut liver slices as an ex vivo model to study drug-induced cholestasis” (Archives of Toxicology, 2022).
“And” between values parts separate entries of the source, which are not always exact repeats. Equal values may be shown once. Where a name gives a salt, the structure may show the parent alone.

Key:
[1] = tested on: Bsep; experiment: Western blot of Bsep protein in mouse PCLS; type: cell-based; details: 48 h
Protocol: In short, freshly prepared PCLS were transferred to 12-well plates (Greiner bio-one GmbH, Austria), one slice per well.
In brief, the protein was extracted from three slices per treatment, and protein samples were denatured (75 °C for 10 min). […] Gels were blotted onto 0.2-μm polyvinylidene fluoride membranes using a Trans-Blot Turbo Transfer System (Bio-Rad, Munich, Germany), set to ramp up to 25 V in 15 min, at a constant current of 2.5 A. Membranes were then treated for 1 h with a protein blocking agent to prevent non-specific binding of antibodies, and incubated at 4 °C overnight with Bsep primary antibody (monoclonal antibody rabbit anti-Bsep, 1:2500, Tebu-Bio, Le Perray-en-Yvelines, France), Ntcp primary antibody (polyclonal antibody, rabbit anti-Ntcp, 1:2000, Tebu-Bio), and vinculin (116 kDa) primary antibody (monoclonal antibody, mouse anti-Vinculin, 1:500, Santa Cruz, California, USA). The following day, membranes were incubated with matching secondary antibodies for 1 h (Goat anti-rabbit HRP (Bsep and Ntcp), 1:2000; Rabbit anti-mouse HRP (vinculin), 1:5000, Dako, Santa Clara). Proteins were then visualized by adding Clarity Western ECL blotting substrate (Bio-Rad, Munich, Germany) and using a ChemiDoc Touch Imaging System (BioRad, Munich, Germany) for imaging of the resulting chemiluminescence. Afterward, Bsep and Ntcp expression was normalized by vinculin expression.

[2] = tested on: mouse PCLS; experiment: LC–MS/MS quantification of intracellular BAs in mouse PCLS; type: cell-based; details: 48 h
Protocol: In short, freshly prepared PCLS were transferred to 12-well plates (Greiner bio-one GmbH, Austria), one slice per well. […] The composition of the human-like BA mixture was based on serum concentrations in mice and humans, measured by […]. […] A Shimadzu Nexera X2 HPLC system with binary pumps was interfaced to a Thermo Scientific TSQ Quantum ultra-triple quadrupole mass spectrometer. The BA analysis was performed by liquid chromatography-tandem mass spectrometry (LC-MS/MS). Xcalibur software version 2.0.7 by Thermo Scientific was applied in the data processing. […] Phenomenex, Utrecht, the Netherlands) reversed-phase column was used to separate the BAs. The column and autosampler temperatures were set at 55 °C and 4 °C, respectively. The injection volume was 15 μL, and the flow was set at 0.3 mL/min. […] Intracellular BA concentrations in PCLS were measured by LC-MS/MS. Sample preparation for these measurements of intracellular BAs was performed as follows. […] Hereafter, three slices for each condition were pooled in a 1.5-mL test tube, snap-frozen in liquid nitrogen and stored at -80 °C until analysis. […] Samples were subsequently centrifuged for 15 min at 15 °C and 13,000 rpm. The supernatant was collected in a new tube, and the samples were concentrated using a Concentrator plus centrifuge (Eppendorf, Germany). […] The concentrations of CA, CDCA, DCA, LCA, UDCA, HDCA, […] and GCA were determined with MRM-based LC-MS as described above.

[3] = non-toxic concentration (CPZ 15 μM, CSA 1 μM, GB 25 μM), vs control with no drug and no BAs
[4] = in the absence of the BA mixture
[5] = with humanized BA mixture, CPZ 15 µM, CSA 1 µM, GB 25 µM
[6] = with humanized BA mixture, CPZ 30 µM, CSA 6 µM, GB 65 µM
[7] = with humanized BA mixture, vs control
[8] = without BA mixture, CPZ 15 µM, CSA 1 µM, GB 25 µM
[9] = without BA mixture, CPZ 30 µM, CSA 6 µM, GB 65 µM

SMILES: CN(C)CCCN1c2ccccc2Sc2ccc(Cl)cc21 [CPZ, Chlorpromazine hydrochloride]
- Bsep protein expression (western blot band intensity) ([1]; non-toxic concentration (CPZ 15 μM, CSA 1 μM), in the presence of the BA mixture): less pronounced
- Bsep protein expression (western blot band intensity) [1, 3]: significant decrease in band intensity
- Effect on total intracellular BA concentration [2, 4]: increased the total intracellular concentration of BAs
- Intracellular CA concentration [2, 5]: 259.9±32.0 pmol/mg protein
- Intracellular CDCA concentration [2, 5]: 20.9±1.8 pmol/mg protein
- Intracellular DCA concentration [2, 5]: 87.7±14.0 pmol/mg protein
- Intracellular GCA concentration [2, 5]: 34.7±16.0 pmol/mg protein
- Intracellular HDCA concentration [2, 5]: 4.0±2.5 pmol/mg protein
- Intracellular LCA concentration [2, 5]: 3.4±1.3 pmol/mg protein
- Intracellular TCA concentration [2, 5]: 244.1±42.8 pmol/mg protein
- Intracellular TCDCA concentration [2, 5]: 10.1±0.2 pmol/mg protein
- Intracellular TDCA concentration [2, 5]: 14.1±0.8 pmol/mg protein
- Intracellular THDCA concentration [2, 5]: 9.4±1.4 pmol/mg protein
- Intracellular UDCA concentration [2, 5]: 34.2±4.0 pmol/mg protein
- Total intracellular concentration of 11 BAs [2, 5]: 722.5±95.4 pmol/mg protein
- Intracellular CA concentration [2, 6]: 314.1±29.7 pmol/mg protein
- Intracellular CDCA concentration [2, 6]: 41.3±6.4 pmol/mg protein
- Intracellular DCA concentration [2, 6]: 297 pmol/mg protein and 297.9±25.1 pmol/mg protein
- Intracellular GCA concentration [2, 6]: 26.1±3.5 pmol/mg protein
- Intracellular HDCA concentration [2, 6]: 13.6±3.9 pmol/mg protein
- Intracellular LCA concentration [2, 6]: 14.9±8.6 pmol/mg protein
- Intracellular TCA concentration [2, 6]: 351.2±67.0 pmol/mg protein
- Intracellular TCDCA concentration [2, 6]: 18.2±5.3 pmol/mg protein
- Intracellular TDCA concentration [2, 6]: 44.3±5.1 pmol/mg protein
- Intracellular THDCA concentration [2, 6]: 9.0±3.0 pmol/mg protein
- Intracellular UDCA concentration [2, 6]: 46.3±3.0 pmol/mg protein
- Effect on total intracellular BA concentration [2, 7]: intracellular accumulation of BAs
- Intracellular CA concentration [2, 8]: 0.3±0.0 pmol/mg protein
- Intracellular CDCA concentration [2, 8]: 0.2±0.2 pmol/mg protein
- Intracellular DCA concentration [2, 8]: 0.1±0.1 pmol/mg protein
- Intracellular GCA concentration [2, 8]: 0.0±0.0 pmol/mg protein
- Intracellular HDCA concentration [2, 8]: 0.0±0.0 pmol/mg protein
- Intracellular LCA concentration [2, 8]: 0.2±0.1 pmol/mg protein
- Intracellular TCA concentration [2, 8]: 0.8±0.1 pmol/mg protein
- Intracellular TCDCA concentration [2, 8]: 14.4±1.7 pmol/mg protein
- Intracellular TDCA concentration [2, 8]: 0.1±0.1 pmol/mg protein
- Intracellular THDCA concentration [2, 8]: 2.4±0.3 pmol/mg protein
- Intracellular UDCA concentration [2, 8]: 0.0±0.0 pmol/mg protein
- Total intracellular concentration of 11 BAs [2, 8]: 18.7±0.0 pmol/mg protein
- Intracellular CA concentration [2, 9]: 0.4±0.1 pmol/mg protein
- Intracellular CDCA concentration [2, 9]: 0.4±0.2 pmol/mg protein
- Intracellular DCA concentration [2, 9]: 0.1±0.1 pmol/mg protein
- Intracellular GCA concentration [2, 9]: 0.0±0.0 pmol/mg protein
- Intracellular HDCA concentration [2, 9]: 0.0±0.0 pmol/mg protein
- Intracellular LCA concentration [2, 9]: 0.3±0.2 pmol/mg protein
- Intracellular TCA concentration [2, 9]: 1.2±0.1 pmol/mg protein
- Intracellular TCDCA concentration [2, 9]: 25.0±2.2 pmol/mg protein
- Intracellular TDCA concentration [2, 9]: 0.1±0.1 pmol/mg protein
- Intracellular THDCA concentration [2, 9]: 5.2±0.7 pmol/mg protein
- Intracellular UDCA concentration [2, 9]: 0.0±0.0 pmol/mg protein
- Total intracellular concentration of 11 BAs [2, 9]: 32.7±0.0 pmol/mg protein

SMILES: COc1ccc(Cl)cc1C(=O)NCCc1ccc(S(=O)(=O)NC(=O)NC2CCCCC2)cc1 [GB, Glibenclamide]
- Bsep protein expression (western blot band intensity) [1, 3]: did not induce any significant changes
- Effect on total intracellular BA concentration [2, 4]: decrease in intracellular concentrations of BAs
- Intracellular CA concentration [2, 5]: 103.6±10.3 pmol/mg protein
- Intracellular CDCA concentration [2, 5]: 14.7±1.6 pmol/mg protein
- Intracellular DCA concentration [2, 5]: 50.7±7.4 pmol/mg protein
- Intracellular GCA concentration [2, 5]: 13.4±2.4 pmol/mg protein
- Intracellular HDCA concentration [2, 5]: 9.4±2.7 pmol/mg protein
- Intracellular LCA concentration [2, 5]: 0.8±0.5 pmol/mg protein
- Intracellular TCA concentration [2, 5]: 103.8±8.6 pmol/mg protein
- Intracellular TCDCA concentration [2, 5]: 7.7±0.5 pmol/mg protein
- Intracellular TDCA concentration [2, 5]: 7.6±0.8 pmol/mg protein
- Intracellular THDCA concentration [2, 5]: 8.3±1.4 pmol/mg protein
- Intracellular UDCA concentration [2, 5]: 19.1±1.7 pmol/mg protein
- Total intracellular concentration of 11 BAs [2, 5]: 339.2±20.7 pmol/mg protein
- Intracellular CA concentration [2, 6]: 132.3±11.3 pmol/mg protein
- Intracellular CDCA concentration [2, 6]: 14.8±1.3 pmol/mg protein
- Intracellular DCA concentration [2, 6]: 121.3±8.6 pmol/mg protein
- Intracellular GCA concentration [2, 6]: 22.4 pmol/mg protein and 22.4±6.1 pmol/mg protein
- Intracellular HDCA concentration [2, 6]: 25.7±1.5 pmol/mg protein
- Intracellular LCA concentration [2, 6]: 0.9±0.3 pmol/mg protein
- Intracellular TCA concentration [2, 6]: 135.2±19.9 pmol/mg protein
- Intracellular TCDCA concentration [2, 6]: 8.6±1.2 pmol/mg protein
- Intracellular TDCA concentration [2, 6]: 14.6±0.9 pmol/mg protein
- Intracellular THDCA concentration [2, 6]: 11.4±2.6 pmol/mg protein
- Intracellular UDCA concentration [2, 6]: 24.5±3.9 pmol/mg protein
- Effect on total intracellular BA concentration [2, 7]: reduced or did not affect
- Intracellular CA concentration [2, 8]: 0.5±0.0 pmol/mg protein
- Intracellular CDCA concentration [2, 8]: 0.2±0.1 pmol/mg protein
- Intracellular DCA concentration [2, 8]: 0.6±0.5 pmol/mg protein
- Intracellular GCA concentration [2, 8]: 0.0±0.0 pmol/mg protein
- Intracellular HDCA concentration [2, 8]: 0.0±0.0 pmol/mg protein
- Intracellular LCA concentration [2, 8]: 0.1±0.1 pmol/mg protein
- Intracellular TCA concentration [2, 8]: 0.7±0.2 pmol/mg protein
- Intracellular TCDCA concentration [2, 8]: 2.3±0.5 pmol/mg protein
- Intracellular TDCA concentration [2, 8]: 0.0±0.0 pmol/mg protein
- Intracellular THDCA concentration [2, 8]: 1.8±0.3 pmol/mg protein
- Intracellular UDCA concentration [2, 8]: 0.0±0.0 pmol/mg protein
- Total intracellular concentration of 11 BAs [2, 8]: 6.3±0.0 pmol/mg protein
- Intracellular CA concentration [2, 9]: 0.5±0.2 pmol/mg protein
- Intracellular CDCA concentration [2, 9]: 0.4±0.3 pmol/mg protein
- Intracellular DCA concentration [2, 9]: 0.1±0.1 pmol/mg protein
- Intracellular GCA concentration [2, 9]: 0.0±0.0 pmol/mg protein
- Intracellular HDCA concentration [2, 9]: 0.0±0.0 pmol/mg protein
- Intracellular LCA concentration [2, 9]: 0.2±0.1 pmol/mg protein
- Intracellular TCA concentration [2, 9]: 0.3±0.1 pmol/mg protein
- Intracellular TCDCA concentration [2, 9]: 2.0±0.4 pmol/mg protein
- Intracellular TDCA concentration [2, 9]: 0.0±0.0 pmol/mg protein
- Intracellular THDCA concentration [2, 9]: 0.5±0.1 pmol/mg protein
- Intracellular UDCA concentration [2, 9]: 0.0±0.0 pmol/mg protein
- Total intracellular concentration of 11 BAs [2, 9]: 4.2±0.0 pmol/mg protein
